Test results taken from PubChem BioAssay AID1919017 (Molecular Pharmacology Branch, DTP, NCI, 2023).

Test system: SW1271 complex spheroids with HUVEC/MSC, growth, % test/control
Experiment: Anticancer human tumor SW1271 cell line growth inhibition [AhR];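 note: spheroids exposed to agents for 7 days before readout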
Conditions: for IC50: curve of first compound; for viability, T/C: stronger effect = lower value
Method in brief: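 Spheroids combined tumor cells with HUVEC endothelial cells and human MSCs as stroma. AhR antagonists were paired with standard or investigational drugs, each dosed in half-log steps down from near clinical Cmax, or from 10 microM where Cmax was unknown.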

[1] = second compound 0.1 µM, first compound 0.0316 µM
[2] = second compound 0.1 µM, first compound 0.1 µM
[3] = second compound 0.1 µM, first compound 0.316 µM
[4] = second compound 0.1 µM, first compound 1 µM
[5] = second compound 0.1 µM, first compound 3.16 µM
[6] = second compound 0.1 µM, first compound 10 µM
[7] = second compound 0.316 µM, first compound 0.0316 µM
[8] = second compound 0.316 µM, first compound 0.1 µM
[9] = second compound 0.316 µM, first compound 0.316 µM
[10] = second compound 0.316 µM, first compound 1 µM
[11] = second compound 0.316 µM, first compound 3.16 µM
[12] = second compound 0.316 µM, first compound 10 µM
[13] = second compound 1 µM, first compound 0.0316 µM
[14] = second compound 1 µM, first compound 0.1 µM
[15] = second compound 1 µM, first compound 0.316 µM
[16] = second compound 1 µM, first compound 1 µM
[17] = second compound 1 µM, first compound 3.16 µM
[18] = second compound 1 µM, first compound 10 µM
[19] = second compound 3.16 µM, first compound 0.0316 µM
[20] = second compound 3.16 µM, first compound 0.1 µM
[21] = second compound 3.16 µM, first compound 0.316 µM
[22] = second compound 3.16 µM, first compound 1 µM
[23] = second compound 3.16 µM, first compound 3.16 µM
[24] = second compound 3.16 µM, first compound 10 µM
[25] = second compound 10 µM, first compound 0.0316 µM
[26] = second compound 10 µM, first compound 0.1 µM
[27] = second compound 10 µM, first compound 0.316 µM
[28] = second compound 10 µM, first compound 1 µM
[29] = second compound 10 µM, first compound 3.16 µM
[30] = second compound 10 µM, first compound 10 µM

Compound	IC50 (second compound 0.1 µM)	IC50 (second compound 0.316 µM)	IC50 (second compound 1 µM)	IC50 (second compound 3.16 µM)	IC50 (second compound 10 µM)	viability, T/C [1]	viability, T/C [2]	viability, T/C [3]	viability, T/C [4]	viability, T/C [5]	viability, T/C [6]	viability, T/C [7]	viability, T/C [8]	viability, T/C [9]	viability, T/C [10]	viability, T/C [11]	viability, T/C [12]	viability, T/C [13]	viability, T/C [14]	viability, T/C [15]	other results
Nc1ccccc1NC(=O)c1ccc(CNC(=O)OCc2cccnc2)cc1 + Cc1cncc(-c2nc(NCCc3c[nH]c4ccccc34)c3ncn(C(C)C)c3n2)c1	1.89 µM	1.74 µM	2.49 µM	1.19 µM	< 0.0316 µM	94.7%	110%	95.5%	69.8%	34.3%	15.8%	109%	104%	97.4%	62.9%	35.5%	17%	121%	118%	88.9%	viability, T/C [16]: 63.1%; viability, T/C [17]: 51.9%; viability, T/C [18]: 17.1%; viability, T/C [19]: 121%; viability, T/C [20]: 107%; viability, T/C [21]: 112%; viability, T/C [22]: 52.8%; viability, T/C [23]: 36%; viability, T/C [24]: 16.7%; viability, T/C [25]: 44.2%; viability, T/C [26]: 46.3%; viability, T/C [27]: 35.3%; viability, T/C [28]: 24%; viability, T/C [29]: 18.3%; viability, T/C [30]: 14.3%
O=C(C=Cc1cccc(S(=O)(=O)Nc2ccccc2)c1)NO + Cc1cncc(-c2nc(NCCc3c[nH]c4ccccc34)c3ncn(C(C)C)c3n2)c1	1.88 µM	1.39 µM	2.09 µM	1.46 µM	0.21 µM	97.2%	93.9%	83.2%	68.3%	35.5%	16.9%	104%	102%	96.8%	61.9%	20.2%	16.6%	97.4%	97.8%	84.5%	viability, T/C [16]: 65.4%; viability, T/C [17]: 41.7%; viability, T/C [18]: 15.9%; viability, T/C [19]: 107%; viability, T/C [20]: 115%; viability, T/C [21]: 97.7%; viability, T/C [22]: 57.5%; viability, T/C [23]: 33.7%; viability, T/C [24]: 16.6%; viability, T/C [25]: 49.9%; viability, T/C [26]: 53.5%; viability, T/C [27]: 53.1%; viability, T/C [28]: 39.8%; viability, T/C [29]: 39.2%; viability, T/C [30]: 25.5%
O=C(c1cc(Cc2n[nH]c(=O)c3ccccc23)ccc1F)N1CCN(C(=O)C2CC2)CC1 + Cc1cncc(-c2nc(NCCc3c[nH]c4ccccc34)c3ncn(C(C)C)c3n2)c1	> 10 µM	> 10 µM	> 10 µM	> 10 µM	< 0.0316 µM	74.1%	75.8%	83.6%	75.6%	102%	100%	84.9%	94.2%	95.5%	83.7%	90.2%	91.4%	84.9%	91.2%	79.3%	viability, T/C [16]: 80.2%; viability, T/C [17]: 81.7%; viability, T/C [18]: 75.8%; viability, T/C [19]: 90.7%; viability, T/C [20]: 78.7%; viability, T/C [21]: 96.6%; viability, T/C [22]: 75.6%; viability, T/C [23]: 62.9%; viability, T/C [24]: 80.1%; viability, T/C [25]: 50.1%; viability, T/C [26]: 46.4%; viability, T/C [27]: 46.4%; viability, T/C [28]: 33.3%; viability, T/C [29]: 44.9%; viability, T/C [30]: 34.7%
